Source: patent US9932314B2, “Pyrazole compounds and their use as T-type calcium channel blockers” (IDORSIA PHARMACEUTICALS LTD, priority 2015, dated 2018)
pIC50: −log10 of the molar value.

These molecules were tested against T1, voltage-dependent T-type calcium channel subunit alpha-1G (Cav3.2) (Homo sapiens, UniProt O95180) (assay: FLIPR calcium flux assay, HEK293 cells recombinantly expressing Cav3.2). Settings: Cav3.2-channel, Fluo-4-AM, 3 min incubation, stimulation with 10 mM CaCl2.
T1 construct: expressed in transfected cells; host or cells: HEK293
T1 sequence (O95180 whole entry): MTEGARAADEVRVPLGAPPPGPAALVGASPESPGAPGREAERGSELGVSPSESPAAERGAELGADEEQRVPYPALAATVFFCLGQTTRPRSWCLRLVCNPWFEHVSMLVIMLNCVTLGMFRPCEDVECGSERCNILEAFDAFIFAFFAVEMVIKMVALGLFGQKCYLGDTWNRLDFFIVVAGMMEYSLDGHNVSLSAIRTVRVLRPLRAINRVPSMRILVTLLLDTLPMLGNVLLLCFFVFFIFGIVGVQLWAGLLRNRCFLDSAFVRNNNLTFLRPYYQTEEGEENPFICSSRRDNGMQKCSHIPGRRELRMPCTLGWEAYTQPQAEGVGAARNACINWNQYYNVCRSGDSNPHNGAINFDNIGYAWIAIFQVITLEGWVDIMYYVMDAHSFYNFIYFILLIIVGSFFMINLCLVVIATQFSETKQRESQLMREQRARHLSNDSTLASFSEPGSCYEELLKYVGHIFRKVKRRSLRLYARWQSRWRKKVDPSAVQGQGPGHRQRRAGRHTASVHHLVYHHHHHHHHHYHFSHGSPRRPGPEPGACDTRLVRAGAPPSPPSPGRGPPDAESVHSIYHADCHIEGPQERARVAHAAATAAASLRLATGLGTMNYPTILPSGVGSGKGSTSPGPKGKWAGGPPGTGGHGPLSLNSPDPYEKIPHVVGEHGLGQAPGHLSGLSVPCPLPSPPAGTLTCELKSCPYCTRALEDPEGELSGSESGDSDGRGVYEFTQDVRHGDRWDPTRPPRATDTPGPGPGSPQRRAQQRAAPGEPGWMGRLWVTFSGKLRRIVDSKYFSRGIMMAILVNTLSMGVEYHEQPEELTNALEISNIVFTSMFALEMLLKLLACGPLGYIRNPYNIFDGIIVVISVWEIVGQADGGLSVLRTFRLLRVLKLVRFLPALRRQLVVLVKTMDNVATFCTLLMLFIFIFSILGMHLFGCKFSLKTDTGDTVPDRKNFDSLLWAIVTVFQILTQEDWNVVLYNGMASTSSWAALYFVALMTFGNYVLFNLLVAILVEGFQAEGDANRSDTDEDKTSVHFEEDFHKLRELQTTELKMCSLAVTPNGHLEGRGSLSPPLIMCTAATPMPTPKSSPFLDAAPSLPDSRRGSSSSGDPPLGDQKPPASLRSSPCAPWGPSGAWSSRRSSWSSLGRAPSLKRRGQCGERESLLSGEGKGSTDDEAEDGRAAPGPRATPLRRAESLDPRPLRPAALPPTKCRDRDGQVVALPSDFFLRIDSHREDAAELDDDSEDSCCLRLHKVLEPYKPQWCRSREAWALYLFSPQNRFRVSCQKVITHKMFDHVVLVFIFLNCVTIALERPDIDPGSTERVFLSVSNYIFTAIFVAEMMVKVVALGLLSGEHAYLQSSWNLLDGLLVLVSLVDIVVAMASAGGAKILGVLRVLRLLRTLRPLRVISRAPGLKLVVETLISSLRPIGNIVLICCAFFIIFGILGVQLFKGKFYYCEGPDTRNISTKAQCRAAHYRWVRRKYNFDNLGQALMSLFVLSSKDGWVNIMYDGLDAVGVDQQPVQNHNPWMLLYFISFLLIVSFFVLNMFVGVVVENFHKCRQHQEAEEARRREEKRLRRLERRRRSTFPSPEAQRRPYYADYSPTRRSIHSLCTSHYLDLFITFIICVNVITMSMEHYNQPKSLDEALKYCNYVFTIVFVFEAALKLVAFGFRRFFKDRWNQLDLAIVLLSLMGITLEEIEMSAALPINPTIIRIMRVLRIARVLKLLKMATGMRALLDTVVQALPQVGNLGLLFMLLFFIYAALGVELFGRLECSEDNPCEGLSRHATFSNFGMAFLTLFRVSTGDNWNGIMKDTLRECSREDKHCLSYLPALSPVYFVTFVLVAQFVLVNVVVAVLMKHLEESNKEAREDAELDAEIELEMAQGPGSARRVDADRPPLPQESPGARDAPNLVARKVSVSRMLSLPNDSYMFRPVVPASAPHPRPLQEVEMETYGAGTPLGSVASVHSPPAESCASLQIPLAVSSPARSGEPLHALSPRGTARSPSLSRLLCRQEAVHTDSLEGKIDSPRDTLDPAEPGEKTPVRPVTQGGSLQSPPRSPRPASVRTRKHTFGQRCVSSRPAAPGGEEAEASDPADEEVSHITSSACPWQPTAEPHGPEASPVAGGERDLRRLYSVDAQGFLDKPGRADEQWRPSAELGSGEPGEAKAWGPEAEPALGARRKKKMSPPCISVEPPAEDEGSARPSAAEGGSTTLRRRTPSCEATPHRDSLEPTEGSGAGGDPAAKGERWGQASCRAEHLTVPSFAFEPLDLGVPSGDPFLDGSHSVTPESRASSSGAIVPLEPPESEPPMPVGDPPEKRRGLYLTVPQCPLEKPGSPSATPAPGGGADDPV
Format: cell-based
In short: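 HEK293 cells stably expressing human Cav3.2 were loaded with Fluo-4-AM. Compounds diluted in TEAC buffer (pH 7.2) were preincubated for 3 min, then Ca2+ entry was triggered by 10 mM final CaCl2. Inhibition curves were fitted sigmoidally to the area under the fluorescence trace.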

pIC50 | Compound
7.19 | N#Cc1ccc(Cn2ccc(NC(=O)Cc3cnc(N4CCCC4)c(F)c3)n2)nc1 [Example 341, N-[1-(5-Cyano-pyridin-2-ylmethyl)-1H-pyrazol-3-yl]-2-(5-fluoro-6-pyrrolidin-1-yl-pyridin-3-yl)-acetamide]
7.41 | O=C(Cc1ccc(OCC2CC2)c(OC(F)(F)F)c1)Nc1ccn(Cc2ccc(F)c(F)c2)n1 [Example 398, 2-(4-Cyclopropylmethoxy-3-trifluoromethoxy-phenyl)-N-[1-(3,4-difluoro-benzyl)-1H-pyrazol-3-yl]-acetamide]
6.22 | N#Cc1cc(Cn2ccc(NC(=O)Cc3ccc(F)cc3OCC(F)(F)F)n2)ccc1F [Example 332, N-[1-(3-Cyano-4-fluoro-benzyl)-1H-pyrazol-3-yl]-2-[4-fluoro-2-(2,2,2-trifluoro-ethoxy)-phenyl]-acetamide]
6.83 | Cc1ccc(Cn2ccc(NC(=O)Cc3ccc(N4CCC(F)(F)C4)nc3)n2)nc1C#N [Example 366, N-[1-(6-Cyano-5-methyl-pyridin-2-ylmethyl)-1H-pyrazol-3-yl]-2-[6-(3,3-difluoro-pyrrolidin-1-yl)-pyridin-3-yl]-acetamide]
6.97 | N#Cc1cc(Cn2ccc(NC(=O)Cc3ccc(C4(C(F)(F)F)CC4)cc3)n2)ncc1F [Example 402, N-[1-(4-Cyano-5-fluoro-pyridin-2-ylmethyl)-1H-pyrazol-3-yl]-2-[4-(1-trifluoromethyl-cyclopropyl)-phenyl]-acetamide]
7.77 | N#Cc1cc(Cn2ccc(NC(=O)Cc3ccc(N4CCC(F)(F)C4)nc3)n2)ccc1F [Example 306, N-[1-(3-Cyano-4-fluoro-benzyl)-1H-pyrazol-3-yl]-2-[6-(3,3-difluoro-pyrrolidin-1-yl)-pyridin-3-yl]-acetamide]
7.89 | Cn1ccc2cc(CC(=O)Nc3ccn(Cc4ccc(F)c(C#N)c4)n3)ccc21 [Example 310, N-[1-(3-Cyano-4-fluoro-benzyl)-1H-pyrazol-3-yl]-2-(1-methyl-1H-indol-5-yl)-acetamide]
8.00 | Cc1cc(CC(=O)Nc2ccn(Cc3ccc(C)c(C#N)n3)n2)ccc1OCC(F)(F)F [Example 367, N-[1-(6-Cyano-5-methyl-pyridin-2-ylmethyl)-1H-pyrazol-3-yl]-2-[3-methyl-4-(2,2,2-trifluoro-ethoxy)-phenyl]-acetamide]
6.05 | Cn1cc(C#N)c2cc(CC(=O)Nc3ccn(Cc4ccc(C#N)cn4)n3)ccc21 [Example 325, 2-(3-Cyano-1-methyl-1H-indol-5-yl)-N-[1-(5-cyano-pyridin-2-ylmethyl)-1H-pyrazol-3-yl]-acetamide]
7.22 | Cc1cc(CC(=O)Nc2ccn(Cc3cc(C#N)c(F)cn3)n2)ccc1OCC(F)(F)F [Example 399, N-[1-(4-Cyano-5-fluoro-pyridin-2-ylmethyl)-1H-pyrazol-3-yl]-2-[3-methyl-4-(2,2,2-trifluoro-ethoxy)-phenyl]-acetamide]

Continued, molecule first:

Compound | pIC50
CN(CC1CC1)c1ccc(CC(=O)Nc2ccn(Cc3ccc(F)c(F)c3)n2)cn1 [Example 185, 2-[6-(Cyclopropylmethyl-methyl-amino)-pyridin-3-yl]-N-[1-(3,4-difluoro-benzyl)-1H-pyrazol-3-yl]-acetamide] | 8.11
COCCN(C)c1ccc(CC(=O)Nc2ccn(Cc3ccc(F)cc3)n2)cc1 [Example 128, N-[1-(4-Fluoro-benzyl)-1H-pyrazol-3-yl]-2-{4-[(2-methoxy-ethyl)-methyl-amino]-phenyl}-acetamide] | 8.01
CN(C)c1ccc(CC(=O)Nc2ccn(Cc3ccc(F)cc3)n2)cn1 [Example 4, 2-(6-Dimethylamino-pyridin-3-yl)-N-[1-(4-fluoro-benzyl)-1H-pyrazol-3-yl]-acetamide] | 7.09
N#Cc1ccc(Cn2ccc(NC(=O)Cc3ccc(OCC4(F)COC4)cc3)n2)nc1 [Example 248, N-[1-(5-Cyano-pyridin-2-ylmethyl)-1H-pyrazol-3-yl]-2-[4-(3-fluoro-oxetan-3-ylmethoxy)-phenyl]-acetamide] | 5.74
N#Cc1ccc(Cn2ccc(NC(=O)Cc3ccc(N4CC(F)(F)C4)nc3)n2)cc1 [Example 144, N-[1-(4-Cyano-benzyl)-1H-pyrazol-3-yl]-2-[6-(3,3-difluoro-azetidin-1-yl)-pyridin-3-yl]-acetamide] | 6.80
CC(C)c1ccc(CC(=O)Nc2ccn(Cc3ccc(F)c(F)c3)n2)cn1 [Example 88, N-[1-(3,4-Difluoro-benzyl)-1H-pyrazol-3-yl]-2-(6-isopropyl-pyridin-3-yl)-acetamide] | 6.96
Cc1nc2ccc(CC(=O)Nc3ccn(Cc4ccc(F)c(F)c4)n3)cc2[nH]1 [Example 135, N-[1-(3,4-Difluoro-benzyl)-1H-pyrazol-3-yl]-2-(2-methyl-3H-benzoimidazol-5-yl)-acetamide] | 6.61
O=C(Cc1ccc(-c2ccncc2)cc1)Nc1ccn(Cc2ccc(F)cc2)n1 [Example 84, N-[1-(4-Fluoro-benzyl)-1H-pyrazol-3-yl]-2-(4-pyridin-4-yl-phenyl)-acetamide] | 7.74
CO[C@@H](C)c1ccc(CC(=O)Nc2ccn(Cc3ccc(F)c(F)c3)n2)cc1 (single isomer, unassigned) [Example 233] | 8.09
O=C(Cc1ccc(C2CC2)nc1)Nc1ccn(Cc2ccc(F)c(Cl)c2)n1 [Example 194, N-[1-(3-Chloro-4-fluoro-benzyl)-1H-pyrazol-3-yl]-2-(6-cyclopropyl-pyridin-3-yl)-acetamide] | 7.21
N#Cc1ccc(Cn2ccc(NC(=O)Cc3ccc(C4(F)COC4)cc3)n2)cc1 [Example 250, N-[1-(4-Cyano-benzyl)-1H-pyrazol-3-yl]-2-[4-(3-fluoro-oxetan-3-yl)-phenyl]-acetamide] | 6.90
COc1ccc(Cn2ccc(NC(=O)Cc3cnc4c(ccn4C)c3)n2)cc1 [Example 215, N-[1-(4-Methoxy-benzyl)-1H-pyrazol-3-yl]-2-(1-methyl-1H-pyrrolo[2,3-b]pyridin-5-yl)-acetamide] | 6.22
O=C(Cc1ccc(-c2ccccn2)cc1)Nc1ccn(Cc2ccc(F)cc2)n1 [Example 82, N-[1-(4-Fluoro-benzyl)-1H-pyrazol-3-yl]-2-(4-pyridin-2-yl-phenyl)-acetamide] | 7.48
Cc1nc(Cn2ccc(NC(=O)Cc3ccc(C(C)C)cc3)n2)ccc1C#N [Example 132, N-[1-(5-Cyano-6-methyl-pyridin-2-ylmethyl)-1H-pyrazol-3-yl]-2-(4-isopropyl-phenyl)-acetamide] | 7.29
COc1ccc(Cn2ccc(NC(=O)Cc3ccc(C(C)C)cc3)n2)nc1 [Example 131, 2-(4-Isopropyl-phenyl)-N-[1-(5-methoxy-pyridin-2-ylmethyl)-1H-pyrazol-3-yl]-acetamide] | 7.06
O=C(Cc1ccc(OC2CC2)cc1)Nc1ccn(Cc2ccc(F)cc2)n1 [Example 63, 2-(4-Cyclopropoxy-phenyl)-N-[1-(4-fluoro-benzyl)-1H-pyrazol-3-yl]-acetamide] | 7.42
N#Cc1ccc(Cn2ccc(NC(=O)Cc3ccc(OC4CC(F)(F)C4)cc3)n2)nc1 [Example 274, N-[1-(5-Cyano-pyridin-2-ylmethyl)-1H-pyrazol-3-yl]-2-[4-(3,3-difluoro-cyclobutoxy)-phenyl]-acetamide] | 6.88
O=C(Cc1ccc(N2CCC2)cc1)Nc1ccn(Cc2ccc(F)c(F)c2)n1 [Example 60, 2-(4-Azetidin-1-yl-phenyl)-N-[1-(3,4-difluoro-benzyl)-1H-pyrazol-3-yl]-acetamide] | 8.33
